Test results as given in US10300071B2, “Compositions and methods for inhibition of mycobacteria” (priority 2014, dated 2019).
≈ marks a conversion by molar mass, not a printed value.

Legend:
Mtb AccD6 = Mtb AccD6 (Mycobacterium tuberculosis, UniProt P9WQH5); test: biochemical; assay type: biochemical; settings: 300 μM malonyl-CoA, inhibitor 10 μM to 2000 μM; read-out: IC50
Mtb strain mc^2-7000 = test: microbe, parasite or virus in culture; assay type: cell-based, Mycobacterium tuberculosis; settings: Mycobacterium tuberculosis, 144 h; 6 days incubation at 37° C., resazurin, read on the 7th day; read-out: MIC
plasma protein = test: Plasma protein binding assay; settings: plasma
Experimental: Protein plasma binding assays were conducted in female mice for each of the arylphenoxypropionate derivatives quizalofop-p, quizalofop-p-ethyl, fenoxaprop-p, and fenoxaprop-p-ethyl.

[1] = cited from earlier work
[2] = 1-year feeding study, dogs; cited from earlier work
[3] = mammals, within three days; cited from earlier work
[4] = CPRC; cited from earlier work
[5] = Additional pharmacokinetic studies in rats
[6] = Pharmacokinetic studies in mice, plasma concentration after gavage (LC/MS); settings: gavage 50 mg/kg

Mtb AccD6, sequence (P9WQH5 whole entry, looked up): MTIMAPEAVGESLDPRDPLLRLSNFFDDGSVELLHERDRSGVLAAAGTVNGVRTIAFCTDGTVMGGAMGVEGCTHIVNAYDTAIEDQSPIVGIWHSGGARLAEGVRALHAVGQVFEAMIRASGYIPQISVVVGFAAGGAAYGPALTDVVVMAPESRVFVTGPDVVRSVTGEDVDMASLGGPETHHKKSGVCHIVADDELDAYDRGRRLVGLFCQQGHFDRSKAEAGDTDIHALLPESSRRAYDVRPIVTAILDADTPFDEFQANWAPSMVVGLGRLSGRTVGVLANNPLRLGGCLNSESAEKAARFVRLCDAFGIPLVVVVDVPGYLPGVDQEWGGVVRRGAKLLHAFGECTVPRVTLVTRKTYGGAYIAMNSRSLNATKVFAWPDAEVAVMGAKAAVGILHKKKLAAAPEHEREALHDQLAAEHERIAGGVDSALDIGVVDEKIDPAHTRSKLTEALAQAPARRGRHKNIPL

CCOC(=O)[C@@H](C)Oc1ccc(Oc2cnc3cc(Cl)ccc3n2)cc1 [quizalofop-p-ethyl, ethyl (2R)-2-{4-[(6-chloroquinoxalin-2-yl)oxy]phenoxy}propanoate]
IC50 (Mtb AccD6): 2300 nM | MIC (Mtb strain mc^2-7000): 0.68 to 1.56 µM (≈ 0.254 to 0.582 µg/mL) | stability under assay conditions (plasma esterase activity) (plasma protein): not stable under assay conditions | LD50, rabbits [1]: greater than 2,000 mg/kg | doses causing zero observed effects [2]: up to 10 mg/kg/day | share of a single oral dose eliminated in urine [3]: more than 90% | carcinogen classification [4]: Group D carcinogen | time to convert from ester to acid [5]: ~3 h | time of peak (maximum) blood concentration ([5]; oral): six to nine | oral absorption ([5]; oral route): absorbed to a considerable extent by the oral route | concentration of quizalofop-p-ethyl detected at all collection timepoints [6]: much lower than the concentration of quizalofop-p detected
